Results taken from patent US11498929B2, “Chromenopyrimidine derivatives as phosphatidylinsitol phosphate kinase inhibitors” (Hibercell, Inc., priority 2019, dated 2022).

Tests used:
[1] = molecular target: T1, PIP4K2A (Homo sapiens, UniProt P48426); assay: Kinase Assay - PIP4K2 A (inhibition of PIP4K2 A kinase assay); format: biochemical; conditions: compounds listed under IC50 bin headings
T1 construct: GST; made in house; host or cells: E. coli
T1 sequence (P48426 1-406): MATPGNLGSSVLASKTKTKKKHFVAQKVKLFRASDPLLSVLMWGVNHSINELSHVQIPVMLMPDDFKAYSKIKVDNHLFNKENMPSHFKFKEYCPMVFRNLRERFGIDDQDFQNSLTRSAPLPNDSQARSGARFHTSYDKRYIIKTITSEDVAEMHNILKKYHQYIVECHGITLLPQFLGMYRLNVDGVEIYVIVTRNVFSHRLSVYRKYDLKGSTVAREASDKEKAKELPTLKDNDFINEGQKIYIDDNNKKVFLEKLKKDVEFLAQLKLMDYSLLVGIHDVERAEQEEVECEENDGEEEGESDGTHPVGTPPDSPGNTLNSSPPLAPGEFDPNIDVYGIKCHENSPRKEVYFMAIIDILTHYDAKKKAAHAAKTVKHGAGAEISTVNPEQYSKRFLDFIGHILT
Method: Dilution series of the compounds were prepared in DMSO at 100 times the final assay concentration (n1=n0/3 in 10 points). The compounds were further diluted to three times the assay concentration in assay buffer (20 mM MOPS pH 7.2, 25 mM magnesium chloride, 0.005% Tween 20). 6 μL of the diluted compounds were added to a 384 well assay plate followed by 9 μL of a mix consisting of 4 nM PIP4K2A (full length protein, SignalChem) and 100 μM PI(5)P diC8 (Tebu-Bio). Enzyme and compounds were pre-incubated at room temperature for 15 minutes.
Then 3 μL of a solution containing 60 μM ATP (Promega) in assay buffer was added to the wells containing compound and enzyme and mixing was performed by pipetting several times. The reaction was incubated at room temperature for 1 h. Then 18 μL of ADP-Glo™ Reagent (Promega) was added to stop the kinase reaction and deplete the unconsumed ATP, mixing was performed by pipetting several times. The plate was incubated at room temperature for 40 minutes before addition of 36 μL of Kinase Detection Reagent (Promega) to convert ADP to ATP and introduce luciferase and luciferin to detect ATP. The reaction was incubated at room temperature for 40 minutes before the luminescence was measured in a in a Victor 3V 1420 multilabel counter (Perkin Elmer).
Percent inhibition of the compounds as compared to dimethyl sulfoxide treated control samples was calculated. Compound concentration versus percent inhibition were fitted to generate IC50 values. […]

[2] = molecular target: T2, PIP4K2 B (GST-tagged PIP4KtypeIIB) (Homo sapiens, UniProt P78356); assay: Kinase Assay - PIP4K2 B (inhibition of PIP4K2 B kinase assay); format: biochemical; conditions: compounds listed under IC50 bin headings
T2 construct: GST; made in house; host or cells: E. coli
T2 sequence (P78356 1-416): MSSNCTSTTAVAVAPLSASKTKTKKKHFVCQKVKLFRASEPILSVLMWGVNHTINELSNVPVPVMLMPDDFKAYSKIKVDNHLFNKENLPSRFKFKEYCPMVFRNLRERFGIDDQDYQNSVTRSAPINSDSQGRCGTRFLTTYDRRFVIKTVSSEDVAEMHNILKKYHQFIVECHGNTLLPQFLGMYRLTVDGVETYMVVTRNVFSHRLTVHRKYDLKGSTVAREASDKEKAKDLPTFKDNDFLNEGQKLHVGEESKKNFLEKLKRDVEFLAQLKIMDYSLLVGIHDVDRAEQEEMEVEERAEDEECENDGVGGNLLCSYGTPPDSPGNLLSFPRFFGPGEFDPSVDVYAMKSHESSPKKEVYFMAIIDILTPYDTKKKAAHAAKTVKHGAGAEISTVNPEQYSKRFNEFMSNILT
From the text: GST tagged PIP4KtypeIIA and B enzymes were overexpressed in E. Coli and purified to >80% homogeneity. Phosphatidyl inositol-5-phosphate (PI5P, Cat. #850152, Avanti Polar Lipids Inc.) was used as the lipid substrate and phosphatidyl ethanolamine (DOPE 18:1, Cat. #850725, Avanti Polar Lipids Inc.) was used as the carrier lipid for assays. Ultrapure ATP and GTP was purchased from Bellbrooke Labs. ADP Glo reagents were obtained from Promega. Transcreener FI reagent was obtained from Bellbrooke labs.
GST-tagged PIP4KtypeIIB (3.4 uL, 2.77 mg/mL) was diluted to 5 mL using HNE buffer to yield 5× enzyme stock (25 nM)
Lipid Preparation: In a 10 mL pyrex glass vial, 1 ug of PI5P and 1 ug of DOPE were suspended in 2.5 mL of HEPES buffer mix and 2.5 mL of H:E buffer. The contents were mixed and sonicated for 3 min to yield a translucent lipid stock.
Compound Preparation: Compounds were stored as 5 mM stocks in neat DMSO as room temperature in glass vials. 5 mM stocks were diluted to 2 mM and then serially diluted (3×) in neat DMSO in 96 well polypropylene plates. From the serially diluted stocks, 3 uL was delivered into 250 uL of 25% DMSO (in water) to generate 5× compound stocks. Typically, the highest compound conc. was 24 uM.
The assay volume was kept at 25 uL. To each well of the reaction plate, 10 uL of lipid stock (1:1 ratio PI5P:DOPE) was delivered. This was followed by the addition of 5 uL of compound in 25% DMSO. Then, to each well, 5 uL of 25 nM (5×) typeIIB enzyme was delivered. The contents were mixed well and incubated for 1 h at 27 C. After 1 h, reaction was initiated by adding 5 uL of 500 uM GTP and the contents were mixed well with a multi-channel pipetteman. The final concentration of the reagents are as follows: 50 mM HEPES, pH 7.3, 10 mM MgCl2, 20 mM NaCl, 0.01% v/v triton-X100, 5% DMSO, 100 uM GTP, 80 uM (2 ug) PI5P, 2 ug DOPE, and 5 nM PIP4KIIB Typically, the highest conc. of compounds was 4.8 uM and the lowest conc. was 0.
After 2 h, the reaction was quenched by adding 25 uL of transcreener FI reagent. The contents were incubated at RT for 1 h and the Fluorescence (Ex:584 Em: 623) was read using Molecular Devices Paradigm plate reader. […] The blanks were averaged and subtracted from all other wells. Using a calibration curve, RFU was converted to uM GDP (product). IC50 was calculated by plotting the residual activity (expressed as % No inhibitor control) vs. log [Inh. conc.]

[3] = tested on: MOLM-16; assay: MOLM-16 EC50 assay; format: cell-based; conditions: MOLM16

| SMILES | IC50 [1] [nM] | IC50 [2] [nM] | EC50 [3] [nM] |
| --- | --- | --- | --- |
| C[C@@H]1CCC(=O)N1c1ccc2c(c1)OC(C)(C)c1nc(Nc3cnc4c(c3)N(C(=O)CN(C)C)CCO4)ncc1-2 [Compound 3, (5R)-1-[3-({1-[2-(dimethylamino)acetyl]-1H,2H,3H-pyrido[2,3-b][1,4]oxazin-7-yl}amino)-5,5-dimethyl-5H-chromeno[3,4-d]pyrimidin-8-yl]-5-methylpyrrolidin-2-one] | 1 to 10 | 1 to 10 | 10 to 100 |
| CC1(C)Oc2cc(N3CCCC3=O)ccc2-c2cnc(Nc3cncc(OCCN4CC(F)C4)c3)nc21 [Compound 30, 1-[3-({5-[2-(3-fluoroazetidin-1-yl)ethoxy]pyridin-3-yl}amino)-5,5-dimethyl-5H-chromeno[3,4-d]pyrimidin-8-yl]pyrrolidin-2-one] | 10 to 100 | 100 to 1000 | – |
| CNCCOc1cncc(Nc2ncc3c(n2)C(C)(C)Oc2cc(N4CCCC4=O)ccc2-3)c1 [Compound 34, 1-[5,5-dimethyl-3-({5-[2-(methylamino)ethoxy]pyridin-3-yl}amino)-5H-chromeno[3,4-d]pyrimidin-8-yl]pyrrolidin-2-one] | 10 to 100 | – | 10 to 100 |
| CN1CCN(CC(=O)N(C)c2cncc(Nc3ncc4c(n3)C(C)(C)Oc3cc(N5CCCC5=O)ccc3-4)c2)CC1 [Compound 35, N-(5-{[5,5-dimethyl-8-(2-oxopyrrolidin-1-yl)-5H-chromeno[3,4-d]pyrimidin-3-yl]amino}pyridin-3-yl)-N-methyl-2-(4-methylpiperazin-1-yl)acetamide] | 100 to 1000 | > 1000 | 100 to 1000 |
| CC(=O)OC(C)C(=O)N1CCOc2ncc(Nc3ncc4c(n3)C(C)(C)Oc3cc(-n5nncc5C)ccc3-4)cc21 (stereo not shown) [Compound 12, 1-(7-{[5,5-dimethyl-8-(5-methyl-1H-1,2,3-triazol-1-yl)-5H-chromeno[3,4-d]pyrimidin-3-yl]amino}-1H,2H,3H-pyrido[2,3-b][1,4]oxazin-1-yl)-1-oxopropan-2-yl acetate] | ≤ 1 | 1 to 10 | > 1000 |
| Cc1cnnn1-c1ccc2c(c1)OC(C)(C)c1nc(Nc3cncc(CNCCS(C)(=O)=O)c3)ncc1-2 [Compound 14, N-[5,5-dimethyl-8-(5-methyl-1H-1,2,3-triazol-1-yl)-5H-chromeno[3,4-d]pyrimidin-3-yl]-5-{[(2-methanesulfonylethyl)amino]methyl}pyridin-3-amine] | ≤ 1 | 1 to 10 | > 1000 |
| CC1(C)Oc2cc(N3CCCC3=O)ccc2-c2cnc(Nc3cnc4c(c3)N(C(=O)NC3CC3)CCO4)nc21 [Compound 23, N-cyclopropyl-7-{[5,5-dimethyl-8-(2-oxopyrrolidin-1-yl)-5H-chromeno[3,4-d]pyrimidin-3-yl]amino}-1H,2H,3H-pyrido[2,3-b][1,4]oxazine-1-carboxamide] | 1 to 10 | 10 to 100 | 10 to 100 |
| CC1(C)Oc2cc(N3CCCC3=O)ccc2-c2cnc(Nc3cncc(N4CCN(CCO)CC4)c3)nc21 [Compound 19, 1-[3-({5-[4-(2-hydroxyethyl)piperazin-1-yl]pyridin-3-yl}amino)-5,5-dimethyl-5H-chromeno[3,4-d]pyrimidin-8-yl]pyrrolidin-2-one] | 1 to 10 | 10 to 100 | 10 to 100 |
| CNC(=O)N1CCOc2ncc(Nc3ncc4c(n3)C(C)(C)Oc3cc(N5C(=O)CC[C@H]5C)ccc3-4)cc21 [Compound 18, 7-({5,5-dimethyl-8-[(2R)-2-methyl-5-oxopyrrolidin-1-yl]-5H-chromeno[3,4-d]pyrimidin-3-yl}amino)-N-methyl-1H,2H,3H-pyrido[2,3-b][1,4]oxazine-1-carboxamide] | ≤ 1 | 1 to 10 | – |
| CC1(C)Oc2cc(N3CCCC3=O)ccc2-c2cnc(Nc3cnc4c(c3)N(C(=O)NCCN3CCOCC3)CCO4)nc21 [Compound 2, 7-{[5,5-dimethyl-8-(2-oxopyrrolidin-1-yl)-5H-chromeno[3,4-d]pyrimidin-3-yl]amino}-N-[2-(morpholin-4-yl)ethyl]-1H,2H,3H-pyrido[2,3-b][1,4]oxazine-1-carboxamide] | 1 to 10 | 1 to 10 | 10 to 100 |
| CC1(C)Oc2cc(N3CCCC3=O)ccc2-c2cnc(Nc3cncc(CN4CC(F)C4)c3)nc21 [Compound 28, 1-[3-({5-[(3-fluoroazetidin-1-yl)methyl]pyridin-3-yl}amino)-5,5-dimethyl-5H-chromeno[3,4-d]pyrimidin-8-yl]pyrrolidin-2-one] | 1 to 10 | 100 to 1000 | – |
| CC1(C)Oc2cc(N3C(=O)CCC34CC4)ccc2-c2cnc(Nc3cccnc3)nc21 [Compound 24, 4-{5,5-dimethyl-3-[(pyridin-3-yl)amino]-5H-chromeno[3,4-d]pyrimidin-8-yl}-4-azaspiro[2.4]heptan-5-one] | 1 to 10 | – | 100 to 1000 |
| CCN(CC)CCOC(=O)N1CCOc2ncc(Nc3ncc4c(n3)C(C)(C)Oc3cc(N5CCCC5=O)ccc3-4)cc21 [Compound 21, 2-(diethylamino)ethyl 7-{[5,5-dimethyl-8-(2-oxopyrrolidin-1-yl)-5H-chromeno[3,4-d]pyrimidin-3-yl]amino}-1H,2H,3H-pyrido[2,3-b][1,4]oxazine-1-carboxylate] | 1 to 10 | 10 to 100 | – |
| C[C@@H]1CCC(=O)N1c1ccc2c(c1)OC(C)(C)c1nc(Nc3cnc4c(c3)N(C(=O)NC3CC3)CCO4)ncc1-2 [Compound 20, N-cyclopropyl-7-({5,5-dimethyl-8-[(2R)-2-methyl-5-oxopyrrolidin-1-yl]-5H-chromeno[3,4-d]pyrimidin-3-yl}amino)-1H,2H,3H-pyrido[2,3-b][1,4]oxazine-1-carboxamide] | 1 to 10 | 1 to 10 | – |
| CCN(CC)CCN(C)c1cncc(Nc2ncc3c(n2)C(C)(C)Oc2cc(-n4nncc4C)ccc2-3)c1 [Compound 27, N3-[2-(diethylamino)ethyl]-N5-[5,5-dimethyl-8-(5-methyl-1H-1,2,3-triazol-1-yl)-5H-chromeno[3,4-d]pyrimidin-3-yl]-N3-methylpyridine-3,5-diamine] | 1 to 10 | – | 100 to 1000 |
